# Laboratory results as given in PubChem BioAssay (NCI).
# Several values for one entry are separate records, joined by “and”; a condition that tells them apart may be missing. Equal entries are not always repeated.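 Five compound concentrations were applied to cells in 96-well plates for 48 hours; endpoints were derived by simple linear interpolation of the resulting dose-response curve. GI50 = concentration required for 50% inhibition of growth. TGI is the concentration that stops growth completely.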 *1 amine or outer side, *2 acyl side, *3 side chain or, on linkers, in order; H or OH if unused. Where a SMILES comes first, the peptide text is derived from it. [ ]: non-standard residue; d: D form. The star is where a group is joined. X31 = CC(=O)N(C)SCC(N[*:1])C(=O)[*:2]; Cbz = O=C(OCc1ccccc1)*; Bn = c1ccc(C*)cc1; For = O=C*
# Columns and labels:
# Test in all cases: NCI anticancer screen, dose series, 48 h
# BT-549 breast = test system: BT-549 breast
# CAKI-1 renal = test system: CAKI-1 renal
# EKVX NSCLC = test system: EKVX NSCLC
# HCT-116 colon = test system: HCT-116 colon
# HOP-62 NSCLC = test system: HOP-62 NSCLC
# K-562 leukemia = test system: K-562 leukemia
# MALME-3M melanoma = test system: MALME-3M melanoma
# MDA-N = test system: MDA-N
# NCI-H460 lung = test system: NCI-H460 lung
# RPMI-8226 leukemia = test system: RPMI-8226 leukemia
# SK-MEL-5 melanoma = test system: SK-MEL-5 melanoma
# SNB-75 CNS = test system: SNB-75 CNS
# TK-10 renal = test system: TK-10 renal
# UACC-257 melanoma = test system: UACC-257 melanoma
# SF-539 CNS = test system: SF-539 CNS
SMILES,TGI (BT-549 breast),GI50 (CAKI-1 renal),TGI (CAKI-1 renal) [µM],TGI (EKVX NSCLC) [µM],TGI (HCT-116 colon),GI50 (HOP-62 NSCLC),TGI (HOP-62 NSCLC) [µM],GI50 (K-562 leukemia),TGI (K-562 leukemia),GI50 (MALME-3M melanoma),TGI (MALME-3M melanoma),TGI (MDA-N),TGI (NCI-H460 lung),TGI (RPMI-8226 leukemia),TGI (SK-MEL-5 melanoma),TGI (SNB-75 CNS) [µM],TGI (TK-10 renal) [µM],TGI (UACC-257 melanoma) [µM],TGI (SF-539 CNS) [µM]
N#Cc1c(-c2ccccc2)cc(-c2ccccc2)n(C2OC(CO)C(O)C(O)C2O)c1=S (stereo unspecified),80.6 µM and > 100 µM,38.1 µM and > 100 µM,> 100,> 100,46.9 µM and > 100 µM,34.3 µM and 72.8 µM,> 100,13.7 µM and 29.4 µM,41.4 µM and > 100 µM,24.9 µM and > 100 µM,62.5 µM and > 100 µM,60.5 µM and > 100 µM,82.8 µM and > 100 µM,56.3 µM and > 100 µM,29.1 µM and > 100 µM,> 100,> 100,–,–
CS(=O)(=O)c1nc(-c2cc3c(c(S(C)(=O)=O)n2)CCC3)cc2c1CCCCC2,58.2 µM,–,> 100,> 100,> 100 µM,–,84.8,–,> 100 µM,–,99.6 µM,> 100 µM,–,> 100 µM,> 100 µM,24.7,> 100,> 100,–
COC(=O)C1(C(=O)OC)Cc2ccc(OC)cc2C2=C1C(=O)c1ccccc1C2=O,37.3 µM,–,7.72,19.1,10.9 µM,–,21.4,–,4.37 µM,–,26.3 µM,3.36 µM,33 µM,–,19.3 µM,35.8,33.4,7.15,30.7
CCc1c2c([nH]c(=S)c1C#N)CCC2,> 100 µM,–,> 100,75.6,> 100 µM,–,> 100,–,> 100 µM,–,> 100 µM,> 100 µM,> 100 µM,> 100 µM,> 100 µM,> 100,> 100,> 100,–
Clc1ccc(NCc2nnc(CCCCCCCCc3nnc(CNc4ccc(Cl)cc4)o3)o2)cc1,> 100 µM,–,> 100,> 100,> 100 µM,–,> 100,–,> 100 µM,–,> 100 µM,> 100 µM,> 100 µM,> 100 µM,> 100 µM,> 100,> 100,> 100,–
COC(=O)C1(CCC(C)=O)CCCCCC1=O (stereo unspecified),> 100 µM,–,> 100,> 100,> 100 µM,–,> 100,–,> 100 µM,–,> 100 µM,> 100 µM,> 100 µM,> 100 µM,> 100 µM,> 100,> 100,> 100,> 100
CC(=O)N(C)SCC(NC(=O)C(Cc1ccccc1)NC(=O)OCc1ccccc1)C(=O)NC(Cc1ccccc1)C(=O)NC(Cc1cn(C=O)c2ccccc12)C(=O)NC(CCCCNC(=O)OCc1ccccc1)C(=O)NC(C(=O)NC(CSN(C)C(C)=O)C(=O)NC(C(N)=O)C(C)OCc1ccccc1)C(C)OCc1ccccc1 (stereo unspecified) (Cbz-F[X31]FW(For)K(Cbz)T(Bn)[X31]T(Bn)-NH2; configuration not given here),68.1 µM,–,–,> 100,> 100 µM,–,> 100,–,> 100 µM,–,> 100 µM,> 100 µM,> 100 µM,> 100 µM,> 100 µM,36.9,57.2,> 100,> 100
